Assay results published in ChEMBL document CHEMBL4431382, “DNA-binding studies of the natural β-carboline eudistomin U” (Bioorg Med Chem Lett, 2016).
The source made the active and inactive calls. The calls are words filed in the database; no cut-off is given here.

Columns and labels:
[1] = system: Calf thymus DNA; test: Binding affinity to calf thymus duplex DNA assessed as induction of hyperchromic shift at 257 nanometer at 75 uM in pH 7 phosphate buffer by UV-vis spectrophotometric analysis; type: nucleic-acid assay; conditions: Bos taurus
[2] = system: Calf thymus DNA; test: Binding affinity to calf thymus duplex DNA assessed as induction of red shift in soret peak at 75 uM in pH 7 phosphate buffer by UV-vis spectrophotometric analysis; type: nucleic-acid assay; conditions: Bos taurus
[3] = system: Calf thymus DNA; test: Binding affinity to calf thymus duplex DNA assessed as induction of ellipticity at 350 nanometer at 25 to 200 uM in pH 7 phosphate buffer by circular dichroism method; type: nucleic-acid assay; conditions: Bos taurus
[4] = system: Calf thymus DNA; test: Binding affinity to calf thymus duplex DNA assessed as induction of hyperchromicity at 25 to 200 uM in pH 7 phosphate buffer by circular dichroism method; type: nucleic-acid assay; conditions: Bos taurus
[5] = system: Calf thymus DNA; test: Binding affinity to calf thymus duplex DNA assessed as induction of hyperchromic shift at 257 nanometer at 50 uM in pH 7 phosphate buffer by UV-vis spectrophotometric analysis; type: nucleic-acid assay; conditions: Bos taurus
[6] = system: Calf thymus DNA; test: Binding affinity to calf thymus duplex DNA assessed as red shift in soret peak at 50 uM in pH 7 phosphate buffer by UV-vis spectrophotometric analysis; type: nucleic-acid assay; conditions: Bos taurus
[7] = system: Calf thymus DNA; test: Binding affinity to calf thymus duplex DNA assessed as melting temperature at 0.5 mM by differential scanning calorimetry (reference value: 51 degC); type: nucleic-acid assay; conditions: Bos taurus
[8] = system: Calf thymus DNA; test: Binding affinity to calf thymus duplex DNA assessed as change in melting temperature at 50 uM in pH 7 phosphate buffer by UV-vis spectrophotometric analysis; type: nucleic-acid assay; conditions: Bos taurus
[9] = system: Calf thymus DNA; test: Binding affinity to calf thymus duplex DNA assessed as induction of ellipticity at 2.5 to 63 uM in pH 7 phosphate buffer by circular dichroism method; type: nucleic-acid assay; conditions: Bos taurus
[10] = system: Calf thymus DNA; test: Binding affinity to calf thymus duplex DNA assessed as change in melting temperature at 2.5 uM in pH 7 phosphate buffer by UV-vis spectrophotometric analysis; type: nucleic-acid assay; conditions: Bos taurus
[11] = species: Bos taurus; test: Binding affinity to calf thymus GC-rich duplex DNA assessed as induction of ellipticity at 25 to 200 uM in pH 7 phosphate buffer by circular dichroism method
[12] = system: Calf thymus DNA; test: Binding affinity to calf thymus duplex DNA assessed as induction of ellipticity at 25 to 200 uM in pH 8.9 phosphate buffer by circular dichroism method; type: nucleic-acid assay; conditions: Bos taurus
[13] = system: Calf thymus DNA; test: Binding affinity to calf thymus duplex DNA assessed as induction of hyperchromic shift at 257 nanometer at 50 uM in pH 8.9 phosphate buffer by UV-vis spectrophotometric analysis; type: nucleic-acid assay; conditions: Bos taurus
[14] = system: Calf thymus DNA; test: Binding affinity to calf thymus duplex DNA assessed as induction of ellipticity at 25 to 200 uM in pH 5.4 phosphate buffer by circular dichroism method; type: nucleic-acid assay; conditions: Bos taurus
[15] = system: Calf thymus DNA; test: Binding affinity to calf thymus duplex DNA assessed as melting temperature at 1 mM by differential scanning calorimetry (reference value: 51 degC); type: nucleic-acid assay; conditions: Bos taurus
[16] = system: Calf thymus DNA; test: Binding affinity to calf thymus duplex DNA assessed as increase in melting temperature by differential scanning calorimetry; type: nucleic-acid assay; conditions: Bos taurus
[17] = system: Calf thymus DNA; test: Binding affinity to calf thymus duplex DNA assessed as induction of hyperchromic shift at 257 nanometer at 50 uM in pH 5.4 phosphate buffer by UV-vis spectrophotometric analysis; type: nucleic-acid assay; conditions: Bos taurus
[18] = species: Bos taurus; test: Binding affinity to calf thymus GC-rich duplex DNA assessed as induction of hyperchromicity at 25 to 200 uM in pH 7 phosphate buffer by circular dichroism method
[19] = system: Calf thymus DNA; test: Binding affinity to calf thymus duplex DNA assessed as induction of red shift at 280 nanometer at 25 to 200 uM in pH 7 phosphate buffer by circular dichroism method; type: nucleic-acid assay; conditions: Bos taurus
[20] = system: Calf thymus DNA; test: Binding affinity to calf thymus duplex DNA assessed as induction of red shift in soret peak at 50 uM in pH 8.9 phosphate buffer by UV-vis spectrophotometric analysis; type: nucleic-acid assay; conditions: Bos taurus
[21] = system: Calf thymus DNA; test: Binding affinity to calf thymus duplex DNA assessed as induction of ellipticity at 349 nanometer at 25 to 200 uM in pH 7 phosphate buffer by circular dichroism method; type: nucleic-acid assay; conditions: Bos taurus
[22] = species: Bos taurus; test: Binding affinity to calf thymus AT-rich duplex DNA assessed as induction of hyperchromicity at 25 to 200 uM in pH 7 phosphate buffer by circular dichroism method
[23] = system: Calf thymus DNA; test: Binding affinity to calf thymus duplex DNA assessed as induction of hyperchromicity at 280 nanometer at 25 to 200 uM in pH 7 phosphate buffer by circular dichroism method; type: nucleic-acid assay; conditions: Bos taurus
[24] = species: Bos taurus; test: Binding affinity to calf thymus AT-rich duplex DNA assessed as induction of ellipticity at 25 to 200 uM in pH 7 phosphate buffer by circular dichroism method
[25] = system: Calf thymus DNA; test: Binding affinity to calf thymus duplex DNA assessed as induction of ellipticity at 25 to 200 uM in pH 7 phosphate buffer in presence of 0.1 M NaCl by circular dichroism method; type: nucleic-acid assay; conditions: Bos taurus
[26] = system: Calf thymus DNA; test: Binding affinity to calf thymus duplex DNA assessed as induction of red shift in soret peak at 50 uM in pH 5.4 phosphate buffer by UV-vis spectrophotometric analysis; type: nucleic-acid assay; conditions: Bos taurus
[27] = system: Calf thymus DNA; test: Binding affinity to calf thymus duplex DNA assessed as melting temperature at 5 mM by differential scanning calorimetry (reference value: 51 degC); type: nucleic-acid assay; conditions: Bos taurus

SMILES: c1ccc2c(c1)[nH]c1cnccc12
- Activity [1]: Active
- Activity [2]: Active
- Activity [3]: inactive

SMILES: C[n+]1ccc2c([nH]c3ccccc32)c1-c1c[nH]c2ccccc12
- Activity [4]: inactive
- Activity [3]: inactive

SMILES: Cc1nccc2c1[nH]c1ccccc12
- Activity [5]: Active
- Activity [6]: Active
- Tm [7]: 65 °C
- ΔTm [8]: 4 °C
- Activity [3]: inactive

SMILES: CC[n+]1c(-c2ccccc2)c2cc(N)ccc2c2ccc(N)cc21
- Activity [9]: Active
- Tm [7]: 75 °C
- ΔTm [10]: 8.9 °C

SMILES: c1ccc2c(-c3nccc4c3[nH]c3ccccc34)c[nH]c2c1
- Activity [5]: Active
- Activity [11]: inactive
- Activity [12]: inactive
- Activity [6]: 20 nm
- Activity [13]: Active
- Activity [14]: Active
- Tm [15]: 56 to 67 °C
- Activity [16]: Dose-dependent effect
- Activity [17]: Active
- Activity [18]: inactive
- Activity [19]: Active
- Activity [20]: Active
- Activity [21]: Active
- Activity [22]: inactive
- Activity [23]: Active
- Activity [24]: inactive
- Activity [25]: Active
- Activity [26]: Active
- ΔTm [8]: 2.3 °C
- Tm [27]: 67 °C
